In experiment [1] the target is T1, μ-opioid receptor (Homo sapiens, UniProt P35372). Description: μ-opioid receptor radioligand dose-displacement binding assay. As for the experimental part:
Radioligand dose-displacement binding assays for μ-opioid receptors used 0.3 nM [^3H]-diprenorphine (Perkin Elmer, Shelton, Conn.), with […] membrane protein/well in a final volume of […] binding buffer (10 mM MgCl2, 1 mM EDTA, 5% DMSO, 50 mM HEPES, pH 7.4). Reactions were carried out in the absence or presence of increasing concentrations of unlabeled naloxone. All reactions were conducted in 96-deep well polypropylene plates for 2 hr at room temperature. […] The data were analyzed using the one-site competition curve fitting functions in GraphPad PRISM™ v. 3.0 or higher (San Diego, Calif.), or an in-house function for one-site competition curve-fitting.
Target sequence in this assay (P35372 whole entry): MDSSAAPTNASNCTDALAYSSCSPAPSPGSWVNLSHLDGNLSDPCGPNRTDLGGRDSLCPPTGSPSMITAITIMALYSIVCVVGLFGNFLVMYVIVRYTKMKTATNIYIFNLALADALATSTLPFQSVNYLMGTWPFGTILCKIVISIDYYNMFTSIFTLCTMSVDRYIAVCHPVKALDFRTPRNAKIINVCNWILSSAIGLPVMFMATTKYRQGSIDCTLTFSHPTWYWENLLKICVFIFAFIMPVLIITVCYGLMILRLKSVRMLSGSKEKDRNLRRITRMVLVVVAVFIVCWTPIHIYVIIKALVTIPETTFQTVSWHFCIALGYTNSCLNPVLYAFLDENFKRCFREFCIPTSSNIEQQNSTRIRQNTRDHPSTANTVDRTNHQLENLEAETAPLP

The target of experiment [2] is T2, κ opioid receptor (Homo sapiens, UniProt P41145). The experiment can be described thus: κ-opioid receptor [35S]GTPγS functional assay. The class given is biochemical. Details: expressed in transfected cells. Conditions: for Emax: relative to the effect elicited by U69,593. As for the experimental part: Functional [^35S]GTPγS binding assays were conducted as follows. κ opioid receptor membrane solution was prepared by sequentially adding final concentrations of 0.026 μg/μl κ membrane protein (in-house), 10 μg/mL saponin, 3 μM GDP and 0.20 nM [^35S]GTPγS to binding buffer (100 mM NaCl, 10 mM MgCl2, 20 mM HEPES, pH 7.4) on ice. The prepared membrane solution (190 μl/well) was transferred to 96-shallow well polypropylene plates containing 10 μl of 20× concentrated stock solutions of agonist prepared in DMSO. Plates were incubated for 30 min at a temperature of about 25° C. with shaking.
κ GTP EC50 is the concentration of a compound providing 50% of the maximal response for the compound at a κ receptor.
κ GTP Emax (%) is the maximal effect elicited by a compound relative to the effect elicited by U69,593.
(Binding of GTPγS marks nucleotide exchange on a G protein.)

Experiment [3] concerns the target T1, μ-opioid receptor. Description: μ-opioid receptor [35S]GTPγS functional assay. To be noted: for EC50: μ-receptor membranes, read-out: GTPγS μ EC50; for Emax: relative to the effect elicited by DAMGO. Details: purchased Perkin Elmer, Shelton, Conn. It is filed as biochemical. As for the experimental part: [^35S]GTPγS functional assays were conducted using freshly thawed μ-receptor membranes (Perkin Elmer, Shelton, Conn.). Assay reactions were prepared by sequentially adding the following reagents to binding buffer (100 mM NaCl, 10 mM MgCl2, 20 mM HEPES, pH 7.4) on ice (final concentrations indicated): membrane protein (0.026 mg/mL), saponin ([…]), GDP ([…]) and [^35S]GTPγS (0.20 nM; Perkin Elmer, Shelton, Conn.). The prepared membrane solution (190 μl/well) was transferred to 96-shallow well polypropylene plates containing 10 μI of 20× concentrated stock solutions of the agonist [D-Ala^e, N-methyl-Phe^4 Gly-ol^5]-enkephalin (DAMGO) prepared in dimethyl sulfoxide (DMSO). Plates were incubated for 30 min at about 25° C. with shaking. […] Data were analyzed using the sigmoidal dose-response curve fitting functions in GraphPad PRISM v. 3.0, or an in-house function for non-linear, sigmoidal dose-response curve-fitting.
μ GTP EC50 is the concentration of a compound providing 50% of the maximal response for the compound at a μ-opioid receptor.
μ GTP Emax (%) is the maximal effect elicited by a compound relative to the effect elicited by DAMGO, a standard μ agonist. Generally, the μ GTP Emax (%) value measures the efficacy of a compound to treat or prevent pain or other Conditions.
Target sequence in this assay (P35372 whole entry, species assumed): as the sequence (P35372 whole entry) above

Experiment [4] deals with T2, κ opioid receptor. The experiment can be described thus: κ-opioid receptor radioligand dose displacement binding assay. Details: expressed in transfected cells; host or cells: HEK-293. As for the experimental part:
Membranes from recombinant HEK-293 cells expressing the human κ opioid receptor (κ) (cloned in house) were prepared by lysing cells in ice cold hypotonic buffer (2.5 mM MgCl2, 50 mM HEPES, pH 7.4) (10 mL/10 cm dish) followed by homogenization with a tissue grinder/Teflon pestle. Membranes were collected by centrifugation at 30,000×g for 15 min at 4° C. and pellets were resuspended in hypotonic buffer to a final concentration of 1-3 mg/mL. Protein concentrations were determined using the BioRad protein assay reagent with bovine serum albumen as standard. Aliquots of κ receptor membranes were stored at […]

Setting [5] is: [3H]-diprenorphine displacement, read-out: Ki (nM) Opioid Receptor μ.
Setting [6] is: κ membrane protein (in-house), read-out: GTPγS κ EC50.
[7] abbreviates: [3H]-U69,593 displacement, HEK-293 membranes, read-out: Ki (nM) Opioid Receptor κ.

Like-named read-outs stand apart in the source and are kept apart here. Bounds are passed on as bounds.

A word on the Ki: it is a dissociation constant, usually derived from enzyme kinetics or from competition with a known ligand. A word on the Emax: it is the size of the effect at its maximum, as opposed to the concentration needed. In general, EC50 refers to the midpoint of the concentration-response curve.

T2 sequence (P41145 whole entry): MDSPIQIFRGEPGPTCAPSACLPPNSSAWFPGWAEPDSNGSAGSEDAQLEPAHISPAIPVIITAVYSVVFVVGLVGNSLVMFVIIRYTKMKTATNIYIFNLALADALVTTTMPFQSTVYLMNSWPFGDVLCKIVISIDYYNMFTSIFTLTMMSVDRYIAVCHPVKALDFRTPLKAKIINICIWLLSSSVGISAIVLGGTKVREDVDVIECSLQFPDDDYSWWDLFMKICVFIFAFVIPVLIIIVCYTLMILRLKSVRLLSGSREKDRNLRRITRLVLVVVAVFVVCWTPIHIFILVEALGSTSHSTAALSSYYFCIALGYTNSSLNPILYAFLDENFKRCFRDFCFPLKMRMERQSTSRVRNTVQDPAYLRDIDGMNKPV

In the case of `C[C@H](NC(=O)C[C@@]12CCN(CC3CC3)C(Cc3ccc(O)cc31)[C@@H]2C)C(N)=O` [Compound 1, (2S)-2-(2-((6R,11R)-3-(cyclopropylmethyl)-8-hydroxy-11-methyl-1,2,3,4,5,6-hexahydro-2,6-methanobenzo[d]azocin-6-yl)acetamido)propanamide], the results for the Ki on μ-opioid receptor [1] (setting [5]) and at κ opioid receptor [4] (setting [7]) were 31.7 ± 6.24 nM and 1.48 ± 0.27 nM, respectively. The Emax at κ opioid receptor [2] was found to be 31.3%. Moreover, the EC50 on κ opioid receptor [2] (setting [6]) was 0.00891 µM; on μ-opioid receptor [3] (μM) it was above 20 µM.

Turning to `C[C@H]1C2Cc3ccc(O)cc3[C@@]1(CCCC(N)=O)CCN2CC1CC1` [Compound 2, 4-((6S,11R)-3-(cyclopropylmethyl)-8-hydroxy-11-methyl-1,2,3,4,5,6-hexahydro-2,6-methanobenzo[d]azocin-6-yl)butanamide], the Ki at μ-opioid receptor [1] (setting [5]) turned out to be 10.7 ± 1.82 nM; on κ opioid receptor [4] (setting [7]), 0.49 ± 0.11 nM. At κ opioid receptor [2], this compound gave an Emax of 67.3%. The EC50 at κ opioid receptor [2] (setting [6]) is 0.00898 µM; on μ-opioid receptor [3] (μM) it was above 20 µM.

In the case of `COc1ccc2c(c1)[C@@]1(CCCC(=O)O)CCN(CC3CC3)C(C2)[C@@H]1C` [Compound 3, 4-((6S,11R)-3-(cyclopropylmethyl)-8-methoxy-11-methyl-1,2,3,4,5,6-hexahydro-2,6-methanobenzo[d]azocin-6-yl)butanoic acid], the values for the Ki on μ-opioid receptor [1] (setting [5]) and on κ opioid receptor [4] (setting [7]) were 1110 ± 32.6 nM and 137 ± 41.9 nM, respectively. In addition, the Emax at κ opioid receptor [2] was found to be 80.7%. The figures for the EC50 on κ opioid receptor [2] (setting [6]) and on μ-opioid receptor [3] (μM) were 3.47 µM and above 20 µM, respectively.

Consider `C[C@H]1C2Cc3ccc(O)cc3[C@@]1(CCCC(=O)O)CCN2CC1CC1` [Compound 4, 4-((6S,11R)-3-(cyclopropylmethyl)-8-hydroxy-11-methyl-1,2,3,4,5,6-hexahydro-2,6-methanobenzo[d]azocin-6-yl)butanoic acid], for which the Ki worked out at 7.61 ± 2.44 nM at μ-opioid receptor [1] (setting [5]) and 2.52 ± 0.23 nM on κ opioid receptor [4] (setting [7]). Also, the Emax at κ opioid receptor [2] amounted to 67.3%. In addition, the EC50 was 0.0248 µM at κ opioid receptor [2] (setting [6]) and above 20 µM at μ-opioid receptor [3] (μM).

`COc1ccc2c(c1)[C@@]1(CC(=O)O)CCN(CC3CC3)C(C2)[C@@H]1C` [Compound 5, 2-((6R,11R)-3-(cyclopropylmethyl)-8-methoxy-11-methyl-1,2,3,4,5,6-hexahydro-2,6-methanobenzo[d]azocin-6-yl)acetic acid]: the EC50 on μ-opioid receptor [3] (μM) was above 20 µM. For the same compound, the Ki at κ opioid receptor [4] (setting [7]) was found to be 4460 ± 1850 nM.

`COc1ccc2c(c1)[C@@]1(CC(=O)N[C@@H](C)C(N)=O)CCN(CC3CC3)C(C2)[C@@H]1C` [Compound 7, (2S)-2-(2-((6R,11R)-3-(cyclopropylmethyl)-8-methoxy-11-methyl-1,2,3,4,5,6-hexahydro-2,6-methanobenzo[d]azocin-6-yl)acetamido)propanamide] gave an Emax on κ opioid receptor [2] of 29.7%. Further, the EC50 on κ opioid receptor [2] (setting [6]) was 5 µM; at μ-opioid receptor [3] (μM), above 20 µM. The Ki at κ opioid receptor [4] (setting [7]) worked out at 193 ± 68.7 nM.

At μ-opioid receptor [1], `COc1ccc2c(c1)[C@@]1(CCC[C@@H](O)CO)CCN(CC3CC3)C(C2)[C@@H]1C` [Compound 10, (2R)-5-((6S,11R)-3-(cyclopropylmethyl)-8-methoxy-11-methyl-1,2,3,4,5,6-hexahydro-2,6-methanobenzo[d]azocin-6-yl)pentane-1,2-diol] came in with a Ki of 3090 ± 922 nM. For the same compound, on κ opioid receptor [2], the EC50 turned out to be 0.0943 µM and the Emax was 95%. The same compound yielded a Ki on κ opioid receptor [4] of 6.68 ± 0.61 nM.

For the compound `C[C@H]1[C@H]2Cc3ccc(O)cc3[C@]1(CCCC(N)=O)CCN2Cc1ccccc1` [Compound 19, 4-((2R,6R,11R)-3-benzyl-8-hydroxy-11-methyl-1,2,3,4,5,6-hexahydro-2,6-methanobenzo[d]azocin-6-yl)butanamide], the Ki on μ-opioid receptor [1] (setting [5]) worked out at 2.65 ± 0.36 nM. In addition, the EC50 on κ opioid receptor [2] (κ membrane protein (in-house), μM, read-out: GTPγS κ EC50) was above 20 µM. At μ-opioid receptor [3], the Emax worked out at 13.7% and the 50% effective concentration (EC50) stood at 0.0401 µM.

For `COc1ccc2c(c1)[C@]1(CCNC(=O)c3cccc(C(=O)O)c3)CCN(CC3CC3)[C@H](C2)[C@@H]1C` [Compound 24, 3-((2-((2R,6R,11R)-3-(cyclopropylmethyl)-8-methoxy-11-methyl-1,2,3,4,5,6-hexahydro-2,6-methanobenzo[d]azocin-6-yl)ethyl)carbamoyl)benzoic acid], the Emax on κ opioid receptor [2] is 88.7%; on μ-opioid receptor [3], 76.3%. Further, the concentration giving a half-maximal response (EC50) on κ opioid receptor [2] (setting [6]) came out at 0.664 µM; on μ-opioid receptor [3], 0.251 µM. In addition, the Ki on κ opioid receptor [4] (setting [7]) worked out at 130 ± 26.5 nM.

On to `COc1ccc2c(c1)[C@]1(CCNC(=O)c3ccc(C(=O)O)cc3)CCN(CC3CC3)[C@H](C2)[C@@H]1C` [Compound 25, 4-((2-((2R,6R,11R)-3-(cyclopropylmethyl)-8-methoxy-11-methyl-1,2,3,4,5,6-hexahydro-2,6-methanobenzo[d]azocin-6-yl)ethyl)carbamoyl)benzoic acid], for which the Emax on κ opioid receptor [2] is 69.3%; at μ-opioid receptor [3] it was 104%. Further, the EC50 on κ opioid receptor [2] (setting [6]) worked out at 2.41 µM; on μ-opioid receptor [3], 0.584 µM. For the same compound, the Ki on κ opioid receptor [4] (setting [7]) is 479 ± 36.3 nM.

Regarding `COc1ccc2c(c1)[C@]1(CCOc3ccc(C(=O)O)cc3)CCN(CC3CC3)[C@H](C2)[C@@H]1C` [Compound 27, 4-(2-((2R,6S,11R)-3-(cyclopropylmethyl)-8-methoxy-11-methyl-1,2,3,4,5,6-hexahydro-2,6-methanobenzo[d]azocin-6-yl)ethoxy)benzoic acid], the Emax at κ opioid receptor [2] stood at 88.3%; on μ-opioid receptor [3], 94.7%. In addition, the EC50 turned out to be 3.69 µM on κ opioid receptor [2] (setting [6]) and 0.245 µM on μ-opioid receptor [3]. Moreover, on κ opioid receptor [4] (setting [7]), the Ki came out at 330 ± 70.1 nM.

With `C[C@H]1[C@H]2Cc3ccc(O)cc3[C@]1(CCOc1ccc(C(=O)O)cc1)CCN2CC1CC1` [Compound 28, 4-(2-((2R,6S,11R)-3-(cyclopropylmethyl)-8-hydroxy-11-methyl-1,2,3,4,5,6-hexahydro-2,6-methanobenzo[d]azocin-6-yl)ethoxy)benzoic acid], the Emax at κ opioid receptor [2] worked out at 110%; at μ-opioid receptor [3], 86.3%. Moreover, the EC50 on κ opioid receptor [2] (setting [6]) was 0.0391 µM; on μ-opioid receptor [3] it was 0.00592 µM. The Ki on κ opioid receptor [4] (setting [7]) turned out to be 5.75 ± 1.04 nM.

As for `COc1ccc2c(c1)[C@@]1(CC(=O)O)CCN(CC3CC3)[C@@H](C2)[C@H]1C` [Compound 29, 2-((2S,6R,11S)-3-(cyclopropylmethyl)-8-methoxy-11-methyl-1,2,3,4,5,6-hexahydro-2,6-methanobenzo[d]azocin-6-yl)acetic acid], on μ-opioid receptor [3], the Emax was 24.8% and the EC50 was determined as 0.346 µM. In addition, the Ki at κ opioid receptor [4] ([3H]-U69,593 displacement, μM, read-out: Ki Opioid Receptor κ) is above 20000 nM.

For the compound `C[C@H]1[C@H]2Cc3ccc(O)cc3[C@]1(CCNC(=O)CN(C)C)CCN2CC1CC1` [Compound 30, N-(2-((2R,6R,11R)-3-(cyclopropylmethyl)-8-hydroxy-11-methyl-1,2,3,4,5,6-hexahydro-2,6-methanobenzo[d]azocin-6-yl)ethyl)-2-(dimethylamino)acetamide], the Emax was 96.5% at κ opioid receptor [2] and 82.2% on μ-opioid receptor [3]. The EC50 at κ opioid receptor [2] (setting [6]) turned out to be 0.00177 µM; on μ-opioid receptor [3], 0.00485 µM. The Ki at κ opioid receptor [4] (setting [7]) is 0.05 ± 0.02 nM.

As for `C[C@H]1[C@H]2Cc3ccc(O)cc3[C@@]1(CCNC(=O)CN)CCN2CC1CC1` [Compound 31], the Emax at κ opioid receptor [2] turned out to be 90.3%; on μ-opioid receptor [3], 102%. The EC50 on κ opioid receptor [2] (setting [6]) is 0.0012 µM; at μ-opioid receptor [3] it was 0.00287 µM. Moreover, the inhibition constant (Ki) on κ opioid receptor [4] (setting [7]) was found to be 0.07 ± 0.01 nM.

Values taken from patent US20180127374A1, “BE[…] AS OPIOID RECEPTORS MODULATORS” (Purdue Pharma L.P., priority 2012, published 2018).
